Measured values as given in patent US6603023B2 (priority 1996, dated 2003).
Where “and” joins values, the source holds several entries; their conditions need not be identical. Equal entries are not always repeated. Structures can show the parent of a compound that is named as a salt. Where two headings read alike, the source gives them in different places.

Assays:
[1] = test system: CCRF-CEM/VBL100; assay: cells; type: cell-based, human; settings: for fold resistance (cross-resistance) vs parent CCRF-CEM: CCRF-CEM/VBL100 MDR cells; for (B)/(A) IC50 ratio: CCRF-CEM/VBL100 vs CCRF-CEM
Method in brief: (§1)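 Suspension leukemic cells (CCRF-CEM, P388 and drug-resistant sublines kept under the selecting agent) were seeded at 5×10^4 cells/mL in RPMI-1640 with 10% FBS at 37 °C. After 72 h drug exposure in duplicate, PMS-XTT was added for 4 h. Absorbance was read at 450 and 630 nm.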

[2] = test system: CCRF-CEM/Taxol®; assay: cells; type: cell-based, human; settings: for IC50: 72 h
Method in brief: as §1

[3] = test system: CCRF-CEM/VM1; assay: cells; type: cell-based, human; settings: for (D)/(A) IC50 ratio: CCRF-CEM/VM1 vs CCRF-CEM
Method in brief: as §1

[4] = test system: DC-3F hamster lung fibroblast cell line; assay: SRB cytotoxicity, DC-3F; type: cell-based
Method in brief: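 Monolayer cultures grown in RPMI 1640-10% FBS at 37 °C, 5% CO2, with resistant sublines kept under their selecting agent. Cytotoxicity determined by SRB protein staining (TCA fixation, absorbance 570 nm) in duplicate at six to seven drug concentrations. ED50 obtained by median-effect plot analysis.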

[5] = test system: DC-3F/ADX; assay: cells; type: cell-based, hamster; settings: for fold resistance vs parent DC-3F: DC-3F/ADX cells; for folds of resistance (IC50 ratio vs parent cell line): DC-3F/ADX vs DC-3F
Method in brief: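 Hamster lung fibroblast DC-3F sublines selected with actinomycin D (ADII moderate, ADX very strong MDR), maintained under selecting agent in RPMI 1640-10% FBS at 37° C. Monolayers exposed to six to seven drug concentrations in duplicate, TCA-fixed, stained with 0.4% SRB; absorbance 570 nm, analyzed by median-effect plot.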

[6] = test system: MCF-7/Adr; assay: cells; type: cell-based, human; settings: for folds of resistance (IC50 ratio vs parent cell line): MCF-7/Adr vs MCF-7; for IC50: 72 h
Method in brief: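 Sulforhodamine B readout: TCA-fixed cultures stained 30 min with 0.4% SRB, bound dye extracted in unbuffered Tris and read at 570 nm. Duplicate experiments, six to seven drug concentrations per run.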

[7] = Table 1A, XTT, 72 h, read-out: IC50
[8] = Table 6, single determinations, read-out: IC50
[9] = Table 1C, SRB, 72 h, read-out: IC50
[10] = Homo sapiens, CCRF-CEM, 72 h, Table 1A, XTT
[11] = Homo sapiens, CCRF-CEM, Table 2, CCR-CEM/VM-1
[12] = Homo sapiens, CCRF-CEM, Table 5, single determinations
[13] = Mesocricetus auratus, DC3F, Table 3
[14] = Homo sapiens, CCRF-CEM, read-out: IC50 (mean ± of determinations, in parentheses), Table 5

| SMILES | IC50 ([1]; Table 1, XTT, read-out: IC50) | (B)/(A) IC50 ratio ([1]; Table 1A) | IC50 ([1]; read-out: IC50) | IC50 ([2]; Table 1A, XTT, read-out: IC50) | IC50 ([3]; Table 1, XTT, read-out: IC50) | (D)/(A) IC50 ratio ([3]; Table 1A) | IC50 [3, 7] | IC50 [4, 9] | folds of resistance (IC50 ratio vs parent cell line) ([5]; Table 1C) | IC50 [5, 9] | folds of resistance (IC50 ratio vs parent cell line) ([6]; Table 1C) | IC50 ([6]; Table 1C, SRB, read-out: IC50) | IC50 [3, 10] | IC50 [3, 11] | IC50 [3, 12] | IC50 [4, 13] | IC50 ([5]; DC3F/ADX, Table 3) | further results |
| --- | --- | --- | --- | --- | --- | --- | --- | --- | --- | --- | --- | --- | --- | --- | --- | --- | --- | --- |
| C/C1=C/C[C@@H](/C(C)=C/c2csc(C)n2)OC(=O)C[C@H](O)C(C)(C)C(=O)[C@H](C)[C@@H](O)[C@@H](C)CCC1 [Desoxyepothilone B, desoxyepothilone B] | 17 nM | 1.8 | 17 nM | 16.2 nM | 14 nM | 1.5 | 14 nM | 0.97 nM | (0.9x) | 0.91 nM | (2.4x) | 7.1 nM |  |  |  |  |  | fold resistance (cross-resistance) vs parent CCRF-CEM ([1]; listed as dEpoB): 1.8 fold; IC50 [1, 7]: 17 nM; IC50 [1, 8]: 17 nM; IC50 ([1]; Table 7, CEM/VBL, read-out: IC50): 16.9 nM; (C)/(A) IC50 ratio [2]: 1.7; IC50 [3, 8]: 14 nM; fold resistance vs parent DC-3F [5]: 0.9 fold; fold resistance vs parent MCF-7 ([6]; MCF-7/Adr cells, listed as dEpoB): 2.4 fold |
| CC(=O)O[C@H]1C(=O)[C@@]2(C)[C@H]([C@H](OC(=O)c3ccccc3)[C@]3(O)C[C@H](OC(=O)[C@H](O)[C@@H](NC(=O)c4ccccc4)c4ccccc4)C(C)=C1C3(C)C)[C@]1(OC(C)=O)CO[C@@H]1C[C@@H]2O [Taxol ®, paclitaxel] |  |  |  |  |  |  |  |  |  |  |  |  | 6.6 nM | 3 nM | 6.6 nM | 94.7 nM | 32000 nM | IC50 ([3]; Homo sapiens, CCRF-CEM, Table 1, XTT): 2 nM; IC50 ([3]; Homo sapiens, CCRF-CEM, Table 2A, Topo II gene mutated cell line): 3 nM; IC50 ([4]; Mesocricetus auratus, DC3F, 72 h, Table 1C, SRB): 95 nM; IC50 ([4]; Mesocricetus auratus, DC3F, relative potency ordering): 90 nM; IC50 ([5]; DC3F/ADX, 72 h, Table 1C, SRB): 32000 nM; IC50 ([5]; DC3F/ADX, relative potency ordering): 32000 nM; IC50 ([6]; Homo sapiens, NCI/ADR-RES): 150 nM |
| CC[C@]1(O)C[C@@H]2CN(CCc3c([nH]c4ccccc34)[C@@](C(=O)OC)(c3cc4c(cc3OC)N(C)[C@H]3[C@@](O)(C(=O)OC)[C@H](OC(C)=O)[C@]5(CC)C=CCN6CC[C@]43[C@@H]65)C2)C1 [Vinblastine, Vinblastine sulfate] |  |  |  |  |  |  |  |  |  |  |  |  | 0.41 nM | 0.68 nM | 0.49 nM | 2.65 nM | 1070 nM | IC50 ([1]; Homo sapiens, CCRF-CEM): 332 nM; IC50 [1, 10]: 332 nM; IC50 ([1]; Homo sapiens, CCRF-CEM, Table 2, CCRF-CEM/VLB): 465 nM; IC50 ([1]; Homo sapiens, CCRF-CEM, Table 5, CCRF-CEM/VLB, single determinations): 440 nM; IC50 [1, 14]: 332 nM; IC50 ([1]; Table 5, CCRF-CEM/VLB, single determinations): 221 nM and 336 nM; IC50 ([2]; Homo sapiens, CCRF-CEM): 6.9 nM; IC50 [3, 14]: 0.41 nM; IC50 ([3]; Table 5, single determinations): 0.39 nM and 0.36 nM |
| C/C(=C\c1csc(C)n1)[C@@H]1C[C@@H]2O[C@]2(C)CCC[C@H](C)[C@H](O)[C@@H](C)C(=O)C(C)(C)[C@@H](O)CC(=O)O1 [Epothilone B, epothilone B] | 3 nM | 6.1 | 2 nM | 1.1 nM | 2 nM | 3.6 | 1.3 nM | 0.6 nM | (28x) | 17 nM | (5.4x) | 2.7 nM |  |  |  |  |  | fold resistance (cross-resistance) vs parent CCRF-CEM [1]: 5 fold; fold resistance (cross-resistance) vs parent CCRF-CEM ([1]; listed as EpoB): 6.1 fold; Potency in parentheses relative to Epo B in CCRF-CEM cells ([1]; CCRF-CEM/VBL MDR cells): 1/6; Potency in square brackets relative to Epo B in CCRF-CEM/VBL MDR cells ([1]; CCRF-CEM/VBL MDR cells): 1; IC50 ([1]; listed as Epo B, read-out: IC50): 2.1 nM; (C)/(A) IC50 ratio ([2]; Table 1A, CCRF-CEM/Taxol vs CCRF-CEM): 3.1; fold resistance vs parent DC-3F ([5]; listed as EpoB): 28 fold |
